Holding throughout (type): cell-based
One test concerns MDA-MB-468. In words: Cell growth inhibition assay (CellTiter-Glo), breast cancer cell line MDA-MB-468. The following applies: Homo sapiens; MDA-MB-468 cells, 96 hours. As for the experimental part:
(§1) The inhibitory effects of the compounds of the present invention against the growth of cancer cells were evaluated as shown below. The cancer cell lines including stomach cancer cell line (NCI-N87) and breast cancer cell line (MDA-MB-468) were cultured under the protocol provided by each supplier. Each type of cells to be used in experiments was sub-cultured in a 96-well plate by counting the exact number of cells using Tali™ Image-based Cytometer (Life Technologies). In a 96-well plate, NCI-N87 was employed with 5,000 cells/well; and MDA-MB-468 was employed with 10,000 cells/well. The cells were treated with the compounds listed in Examples which were diluted in various concentrations. Upon completion of the compounds treatment, NCI-N87 cells were cultured at 37° C. under 5% CO2 for 96 hours, and MDA-MB-468 cells were cultured at 37° C. in air for 96 hours. Subsequently, the cells were observed under microscope and drug precipitation and particular findings were investigated and recorded. And then, the 96-well plate was placed at room temperature for 30 minutes, added with 20 μL/well of CellTiter-Glo solution (Cat No. G7573, Promega) and shaken for 10 minutes, followed by being subjected to the measurement using PHERAstar™ microplate reader (BMG LABTECH) according to the supplier's general luminometer protocol. Wells where only culture liquid added without cell plating were used as a negative control, whereas wells where culture liquid containing 0.1% DMSO instead of the compounds listed in Examples were used as a positive control.

For a further test, the target named is T1, STAT3 (Homo sapiens, UniProt P40763).
T1 construct: plasmid pSTAT3-TA-luc), which contains a stably operating STAT3 promoter; endogenous in cells
As to the kind of experiment: STAT3 reporter gene (luciferase) assay in LNCaP stable cell line stimulated with IL-6. Conditions: LNCaP stable cell line (pSTAT3-TA-luc), IL-6 10 ng/mL, 24 hours. As for the experimental part:
1-1) Experiment on the Inhibition of STAT3 Activity
A human prostate cancer cell line (LNCaP stable cell line; plasmid pSTAT3-TA-luc), which contains a stably operating STAT3 promoter, was cultured in RPMI1640 medium (Cat No. 11875, Life Technologies) containing 10% fetal bovine serum (FBS) (Cat No. SH30396, Thermo Scientific) and 150 μg/mL G-418 solution (Cat No. 04 727 894 001, Roche). The reporter gene assay using LNCaP stable cell line was performed in RPMI1640 medium containing 3% DCC-FBS without G-418 solution. LNCaP stable cells were plated in two (2) white 96-well plates with 30,000 cells/50 μL in each well. The cells were cultured at 37° C., under 5% CO2 for 24 hours, and then treated with the compounds listed in Examples which were diluted in various concentrations. Subsequently, IL-6 was added to each well with a final concentration of 10 ng/mL. Upon completion of the treatment with the compounds and IL-6, the cells were cultured at 37° C., under 5% CO2 for 24 hours. The plates were observed under microscope and drug precipitation and particular findings were investigated and recorded.
The luciferase assay and the cell viability assay were performed respectively with one of the two plates. For the luciferase assay, the liquid media in the 96-well plate was removed, and then, 20 μL of passive cell lysis buffer was added to each well. After shaking the plate for 30 minutes, luciferase activities of each well were measured in a PHERAstar™ microplate reader (BMG LABTECH) using a luciferase assay system (Cat No. E1501, Promega). For the cell viability assay, the 96-well plate was placed at room temperature for 30 minutes, added with 20 μL/well of CellTiter-Glo solution (Cat No. G7573, Promega), and shaken for 10 minutes in order to measure cytotoxicity caused by the compounds listed in Examples with a PHERAstar™ microplate reader (BMG LABTECH). Wells without 0.1% DMSO and stimulation were used as a negative control and wells with 0.1% DMSO and stimulation were used as a positive control.
The results of evaluation on the inhibitory effect of the compounds listed in the Examples on the dimerization of STAT3 and STAT1 obtained via the STAT3 and STAT1 reporter gene assays are shown in Table 6 below.
(In general: In a reporter assay the amount or activity of a reporter protein is the signal.)

The subject of the next test is NCI-N87. In words: Cell growth inhibition assay (CellTiter-Glo), stomach cancer cell line NCI-N87. Conditions: Homo sapiens; NCI-N87 cells, 96 hours. As for the experimental part:
as §1
(In general: Cellular ATP, detected with luciferase, serves as a proxy for viable cell number.)

Bounds are passed on as bounds.

T1 sequence (P40763 whole entry): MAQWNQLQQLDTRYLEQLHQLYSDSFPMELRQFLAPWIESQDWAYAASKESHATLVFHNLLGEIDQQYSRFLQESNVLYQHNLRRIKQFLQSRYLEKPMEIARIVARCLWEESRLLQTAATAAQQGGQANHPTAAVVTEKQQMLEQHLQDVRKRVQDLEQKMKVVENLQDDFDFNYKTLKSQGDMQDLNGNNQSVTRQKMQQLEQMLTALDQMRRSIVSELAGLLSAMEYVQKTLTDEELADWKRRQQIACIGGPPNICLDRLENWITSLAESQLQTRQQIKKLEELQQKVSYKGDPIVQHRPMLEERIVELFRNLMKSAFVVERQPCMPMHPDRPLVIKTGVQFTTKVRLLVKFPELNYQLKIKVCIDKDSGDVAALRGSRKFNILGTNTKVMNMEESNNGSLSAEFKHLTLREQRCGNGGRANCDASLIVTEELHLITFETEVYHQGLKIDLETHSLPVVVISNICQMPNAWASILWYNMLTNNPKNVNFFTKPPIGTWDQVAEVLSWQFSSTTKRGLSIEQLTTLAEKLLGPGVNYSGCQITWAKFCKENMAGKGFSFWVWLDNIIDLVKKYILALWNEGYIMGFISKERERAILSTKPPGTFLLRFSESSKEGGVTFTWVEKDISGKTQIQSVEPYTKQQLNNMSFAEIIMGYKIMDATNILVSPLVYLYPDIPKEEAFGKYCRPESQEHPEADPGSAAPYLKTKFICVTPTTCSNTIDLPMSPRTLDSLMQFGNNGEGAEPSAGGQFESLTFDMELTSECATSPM

As for `Cc1cc(Oc2cc(NC(=O)c3cc4cc5c(cc4s3)OCCC5S(C)(=O)=O)cc(Cl)n2)ccc1Cl` (stereo not drawn) [Example 20, N-(2-chloro-6-(4-chloro-3-methylphenoxy)pyridin-4-yl)-4-(methylsulfonyl)-3,4-dihydro-2H-thieno[3,2-g]chromene-7-carboxamide], the IC50 (in general, the point on the concentration scale where inhibition reaches its midpoint) turned out to be 0.0024 µM in the test on MDA-MB-468, 0.01 µM against STAT3 and 0.0094 µM in the test with NCI-N87.

Take `COc1cc(F)cc(Oc2cc(NC(=O)c3cc4cc5c(cc4s3)OCCC5S(C)(=O)=O)cc(Cl)n2)c1` (stereo not drawn) [Example 32, N-(2-chloro-6-(3-fluoro-5-methoxyphenoxy)pyridin-4-yl)-4-(methylsulfonyl)-3,4-dihydro-2H-thieno[3,2-g]chromene-7-carboxamide]: the IC50 in the test on MDA-MB-468 came out at 0.0089 µM; at STAT3, 0.016 µM; in the test on NCI-N87, 0.031 µM.

For the compound `CS(=O)(=O)[C@H]1CCOc2cc3sc(C(=O)Nc4cc(Cl)nc(Oc5ccc(Cl)cc5)c4)cc3cc21` [Example 43, (S)—N-(2-chloro-6-(4-chlorophenoxy)pyridin-4-yl)-4-(methylsulfonyl)-3,4-dihydro-2H-thieno[3,2-g]chromene-7-carboxamide], the values for the half-inhibitory concentration (IC50) with MDA-MB-468, on STAT3 and in the test with NCI-N87 were 0.0029 µM, 0.018 µM and 0.015 µM, respectively.

With `CS(=O)(=O)C1CCOc2cc3sc(C(=O)Nc4cc(Cl)nc(Oc5ccc(Cl)c(Cl)c5)c4)cc3cc21` (stereo not drawn) [Example 24, N-(2-chloro-6-(3,4-dichlorophenoxy)pyridin-4-yl)-4-(methylsulfonyl)-3,4-dihydro-2H-thieno[3,2-g]chromene-7-carboxamide], the IC50 with MDA-MB-468 was 0.0024 µM; at STAT3, 0.0062 µM; in the test with NCI-N87 it was 0.0038 µM.

Turning to `CC1(S(C)(=O)=O)CCOc2cc3sc(C(=O)Nc4cc(Cl)nc(Oc5ccc(Cl)cc5)c4)cc3cc21` (stereo not drawn) [Example 11, N-(2-chloro-6-(4-chlorophenoxy)pyridin-4-yl)-4-methyl-4-(methylsulfonyl)-3,4-dihydro-2H-thieno[3,2-g]chromene-7-carboxamide], the results for the IC50 with MDA-MB-468, on STAT3 and in the test on NCI-N87 were 0.0052 µM, 0.006 µM and 0.01 µM, respectively.

For `CS(=O)(=O)C1CCC(F)(F)c2cc3sc(C(=O)Nc4cc(Cl)nc(Oc5ccc(Cl)cc5)c4)cc3cc21` (stereo not drawn) [Example 14, N-(2-chloro-6-(4-chlorophenoxy)pyridin-4-yl)-8,8-difluoro-5-(methylsulfonyl)-5,6,7,8-tetrahydronaphtho[2,3-b]thiophene-2-carboxamide], the 50% inhibitory concentration (IC50) with MDA-MB-468 stood at 0.026 µM; against STAT3, 0.029 µM; in the test on NCI-N87, 0.16 µM.

In the case of `COc1ccc(Oc2cc(NC(=O)c3cc4cc5c(cc4s3)OCCC5S(C)(=O)=O)cc(Cl)n2)cc1` (stereo not drawn) [Example 22, N-(2-chloro-6-(4-methoxyphenoxy)pyridin-4-yl)-4-(methylsulfonyl)-3,4-dihydro-2H-thieno[3,2-g]chromene-7-carboxamide], the IC50 was determined as 0.017 µM in the test on MDA-MB-468, 0.03 µM against STAT3 and 0.071 µM with NCI-N87.

As for `CS(=O)(=O)C1CCOc2cc3sc(C(=O)Nc4cc(Cl)nc(Oc5ccccc5OC(F)(F)F)c4)cc3cc21` (stereo not drawn) [Example 40, N-(2-chloro-6-(2-(trifluoromethoxy)phenoxy)pyridin-4-yl)-4-(methylsulfonyl)-3,4-dihydro-2H-thieno[3,2-g]chromene-7-carboxamide], the results for the IC50 with MDA-MB-468, at STAT3 and in the test with NCI-N87 were 0.0086 µM, 0.0087 µM and 0.023 µM, respectively.

Consider `CS(=O)(=O)C1CCOc2cc3sc(C(=O)Nc4cc(Cl)nc(Oc5cccc(C(F)(F)F)c5)c4)cc3cc21` (stereo not drawn) [Example 16, N-(2-chloro-6-(3-(trifluoromethyl)phenoxy)pyridin-4-yl)-4-(methylsulfonyl)-3,4-dihydro-2H-thieno[3,2-g]chromene-7-carboxamide], for which the IC50 with MDA-MB-468 was found to be 0.0039 µM; against STAT3, 0.0051 µM; in the test with NCI-N87 it was 0.021 µM.

For `CS(=O)(=O)C1(F)CCOc2cc3sc(C(=O)Nc4cc(Cl)nc(Oc5ccc(Cl)cc5)c4)cc3cc21` (stereo not drawn) [Example 13, N-(2-chloro-6-(4-chlorophenoxy)pyridin-4-yl)-4-fluoro-4-(methylsulfonyl)-3,4-dihydro-2H-thieno[3,2-g]chromene-7-carboxamide], the IC50 with MDA-MB-468 stood at 0.0066 µM; on STAT3, 0.0081 µM; with NCI-N87, 0.025 µM.

Consider `CS(=O)(=O)C1CCOc2cc3sc(C(=O)Nc4cc(Cl)nc(Oc5cccc(OC(F)(F)F)c5)c4)cc3cc21` (stereo not drawn) [Example 29, N-(2-chloro-6-(3-(trifluoromethoxy)phenoxy)pyridin-4-yl)-4-(methylsulfonyl)-3,4-dihydro-2H-thieno[3,2-g]chromene-7-carboxamide], for which the concentration for half-maximal inhibition (IC50) in the test with MDA-MB-468 is 0.0029 µM; against STAT3 it was 0.0059 µM; in the test on NCI-N87 it was 0.0046 µM.

As for `CS(=O)(=O)[C@@]1(F)CCOc2cc3sc(C(=O)Nc4cc(Cl)nc(Oc5ccc(Cl)cc5)c4)cc3cc21` [Example 45, (S)—N-(2-chloro-6-(4-chlorophenoxy)pyridin-4-yl)-4-fluoro-4-(methylsulfonyl)-3,4-dihydro-2H-thieno[3,2-g]chromene-7-carboxamide], the results for the IC50 in the test on MDA-MB-468, on STAT3 and in the test on NCI-N87 were 0.0025 µM, 0.0039 µM and 0.0056 µM, respectively.

In the case of `CS(=O)(=O)C1CCOc2cc3sc(C(=O)Nc4cc(Cl)nc(Oc5cc(Cl)cc(Cl)c5)c4)cc3cc21` (stereo not drawn) [Example 18, N-(2-chloro-6-(3,5-dichlorophenoxy)pyridin-4-yl)-4-(methylsulfonyl)-3,4-dihydro-2H-thieno[3,2-g]chromene-7-carboxamide], the IC50 in the test on MDA-MB-468 amounted to 0.0043 µM; on STAT3 it was 0.015 µM; with NCI-N87, 0.02 µM.

As for `[N-]=[N+]=NC1CCOc2cc3sc(C(=O)Nc4cc(Cl)nc(Oc5ccc(Cl)cc5)c4)cc3cc21` (stereo not drawn) [Example 55, 4-azido-N-(2-chloro-6-(4-chlorophenoxy)pyridin-4-yl)-3,4-dihydro-2H-thieno[3,2-g]chromene-7-carboxamide], the IC50 worked out at 0.078 µM with MDA-MB-468, 0.039 µM at STAT3 and 1.2 µM with NCI-N87.

As for `O=C(Nc1cc(Cl)nc(Oc2ccc(Cl)cc2)c1)c1cc2cc3c(cc2s1)OCCC3N1CCCC1=O` (stereo not drawn) [Example 53, N-(2-chloro-6-(4-chlorophenoxy)pyridin-4-yl)-4-(2-oxopyrrolidin-1-yl)-3,4-dihydro-2H-thieno[3,2-g]chromene-7-carboxamide], the figures for the half-maximal inhibitory concentration (IC50) in the test with MDA-MB-468, against STAT3 and with NCI-N87 were 0.71 µM, 5.2 µM and 4.4 µM, respectively.

As to `C[C@@]1(S(C)(=O)=O)CCOc2cc3sc(C(=O)Nc4cc(Cl)nc(Oc5ccc(Cl)cc5)c4)cc3cc21` [Example 48, (R)—N-(2-chloro-6-(4-chlorophenoxy)pyridin-4-yl)-4-methyl-4-(methylsulfonyl)-3,4-dihydro-2H-thieno[3,2-g]chromene-7-carboxamide], the IC50 with MDA-MB-468 is greater than 0.1 µM; against STAT3, 0.15 µM; with NCI-N87, 0.79 µM.

In the case of `CS(=O)(=O)C1COCc2cc3sc(C(=O)Nc4cc(Cl)nc(Oc5ccc(Cl)cc5)c4)cc3cc21` (stereo not drawn) [Example 12, N-(2-chloro-6-(4-chlorophenoxy)pyridin-4-yl)-5-(methylsulfonyl)-5,8-dihydro-6H-thieno[3,2-g]isochromene-2-carboxamide], the results for the IC50 in the test on MDA-MB-468, against STAT3 and in the test with NCI-N87 were 0.0028 µM, 0.003 µM and 0.0018 µM, respectively.

For the origin of these results see US10633394B2, “Heterocyclic derivatives and use thereof” (C & C RESEARCH LABORATORIES, priority 2014, dated 2020).
